Measurements published in PubChem BioAssay AID248 (DTP/NCI, 2004).
Values joined by “and” are separate entries in the source; they are usually repeats but may differ in a detail not shown here. Identical values can stand only once. Inconclusive results and toxic doses are left out. Cut-off read from the data, not from the text of the source: active = T/C of 150% or more; inactive = T/C below 125%.

Test system: L1210 leukemia ip in BDF1 mice, survival T/C
Experiment: NCI In Vivo Anticancer Drug Screen. Data for tumor model L1210 Leukemia (intraperitoneal) in B6D2F1 (BDF1) mice
Conditions: endpoint: mean survival time, higher = longer survival
Procedure, shortened: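 Read-out is survival time, reported as the treated-group measurement over the vehicle-control measurement.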

[1] = dose: 12.5 mg/kg/injection, schedule: Q04DX003 (ip), vehicle: Klucel (hydroxypropylcellulose) (HPC)
[2] = dose: 25.0 mg/kg/injection, schedule: Q04DX003 (ip), vehicle: Klucel (hydroxypropylcellulose) (HPC)
[3] = dose: 50.0 mg/kg/injection, schedule: Q04DX003 (ip), vehicle: Klucel (hydroxypropylcellulose) (HPC)
[4] = dose: 100.0 mg/kg/injection, schedule: Q01DX009 (ip), vehicle: Klucel (hydroxypropylcellulose) (HPC)
[5] = dose: 200.0 mg/kg/injection, schedule: Q01DX009 (ip), vehicle: Klucel (hydroxypropylcellulose) (HPC)
[6] = dose: 400.0 mg/kg/injection, schedule: Q01DX009 (ip), vehicle: Klucel (hydroxypropylcellulose) (HPC)

Measured: T/C

CCOc1ccccc1/C=C1\C=Nc2ccccc21
inactive: dose: 50.0 mg/kg/injection, schedule: Q01DX009 (ip), vehicle: carboxymethylcellulose (CMC) 92 % of control and 101 % of control | dose: 50.0 mg/kg/injection, schedule: Q04DX003 (ip), vehicle: carboxymethylcellulose (CMC) 96 % of control | dose: 100.0 mg/kg/injection, schedule: Q01DX009 (ip), vehicle: carboxymethylcellulose (CMC) 92 % of control and 93 % of control | dose: 100.0 mg/kg/injection, schedule: Q04DX002 (ip), vehicle: carboxymethylcellulose (CMC) 96 % of control and 99 % of control | dose: 100.0 mg/kg/injection, schedule: Q04DX003 (ip), vehicle: carboxymethylcellulose (CMC) 98 % of control | dose: 200.0 mg/kg/injection, schedule: Q01DX009 (ip), vehicle: carboxymethylcellulose (CMC) 89 % of control and 90 % of control | dose: 200.0 mg/kg/injection, schedule: Q04DX002 (ip), vehicle: carboxymethylcellulose (CMC) 89 % of control and 91 % of control | dose: 200.0 mg/kg/injection, schedule: Q04DX003 (ip), vehicle: carboxymethylcellulose (CMC) 100 % of control | dose: 400.0 mg/kg/injection, schedule: Q04DX002 (ip), vehicle: carboxymethylcellulose (CMC) 89 % of control

COc1ccc2nccc(/C=C/CC3CCN(C(C)=O)CC3)c2c1
inactive: dose: 12.5 mg/kg/injection, schedule: Q01DX009 (ip), vehicle: saline 98 % of control | [1] 103 % of control | dose: 25.0 mg/kg/injection, schedule: Q01DX009 (ip), vehicle: saline 96 % of control | [2] 107 % of control | dose: 50.0 mg/kg/injection, schedule: Q01DX009 (ip), vehicle: saline 101 % of control | [3] 103 % of control | dose: 100.0 mg/kg/injection, schedule: Q04DX003 (ip), vehicle: saline 102 % of control

CN(C)C(=O)Nc1ccc([N+](=O)[O-])cc1[N+](=O)[O-]
inactive: dose: 100.0 mg/kg/injection, schedule: Q01DX001 (ip), vehicle: saline with Tween-80 96 % of control | dose: 200.0 mg/kg/injection, schedule: Q01DX001 (ip), vehicle: saline with Tween-80 89 % of control | dose: 400.0 mg/kg/injection, schedule: Q01DX001 (ip), vehicle: saline with Tween-80 94 % of control | dose: 800.0 mg/kg/injection, schedule: Q04DX002 (ip), vehicle: saline with Tween-80 104 % of control and 107 % of control

COc1cccc(OC)c1OC(=O)Nc1cccc(C(F)(F)F)c1
inactive: [4] 101 % of control | [5] 98 % of control | [6] 90 % of control

CC(=O)OCC1OC(OC(C)=O)C(OC(C)=O)C1OC(C)=O (configuration not stated)
inactive: dose: 100.0 mg/kg/injection, schedule: Q01DX001 (ip), vehicle: saline 107 % of control | dose: 200.0 mg/kg/injection, schedule: Q01DX001 (ip), vehicle: saline 106 % of control | dose: 400.0 mg/kg/injection, schedule: Q01DX001 (ip), vehicle: saline 102 % of control

Cc1c(Cl)cc(Cl)c2ncccc12
inactive: [1] 95 % of control | [2] 86 % of control | [3] 96 % of control

O=C(O)c1ncn[nH]1
inactive: [4] 95 % of control | dose: 100.0 mg/kg/injection, schedule: Q04DX002 (ip), vehicle: Klucel (hydroxypropylcellulose) (HPC) 89 % of control | dose: 100.0 mg/kg/injection, schedule: Q04DX003 (ip), vehicle: Klucel (hydroxypropylcellulose) (HPC) 101 % of control | [5] 100 % of control | dose: 200.0 mg/kg/injection, schedule: Q04DX002 (ip), vehicle: Klucel (hydroxypropylcellulose) (HPC) 115 % of control | dose: 200.0 mg/kg/injection, schedule: Q04DX003 (ip), vehicle: Klucel (hydroxypropylcellulose) (HPC) 95 % of control | [6] 100 % of control | dose: 400.0 mg/kg/injection, schedule: Q04DX002 (ip), vehicle: Klucel (hydroxypropylcellulose) (HPC) 89 % of control | dose: 400.0 mg/kg/injection, schedule: Q04DX003 (ip), vehicle: Klucel (hydroxypropylcellulose) (HPC) 108 % of control

Nc1cc(Cl)cc2[nH]c(=O)c3cc(Cl)ccc3c12
inactive: dose: 100.0 mg/kg/injection, schedule: Q01DX001 (ip), vehicle: carboxymethylcellulose (CMC) 100 % of control | dose: 200.0 mg/kg/injection, schedule: Q01DX001 (ip), vehicle: carboxymethylcellulose (CMC) 102 % of control | dose: 400.0 mg/kg/injection, schedule: Q01DX001 (ip), vehicle: carboxymethylcellulose (CMC) 95 % of control

Nc1ccc(N)c(N)n1
inactive: dose: 6.25 mg/kg/injection, schedule: Q04DX003 (ip), vehicle: saline 95 % of control | dose: 12.5 mg/kg/injection, schedule: Q04DX003 (ip), vehicle: saline 97 % of control | dose: 15.0 mg/kg/injection, schedule: Q01DX001 (ip), vehicle: saline 107 % of control | dose: 25.0 mg/kg/injection, schedule: Q04DX003 (ip), vehicle: saline 97 % of control | dose: 30.0 mg/kg/injection, schedule: Q01DX001 (ip), vehicle: saline 107 % of control | dose: 60.0 mg/kg/injection, schedule: Q01DX001 (ip), vehicle: saline 97 % of control
